Consider one compound from article PMC7613515, “Reading and erasing of the phosphonium analogue of trimethyllysine by epigenetic proteins” (Communications Chemistry, 2022).

This assay deals with T1, TAF3PHD (R857–K924) (Mus musculus, UniProt Q5HZG4).
T1 construct: TAF3PHD (R857–K924); made in house; host or cells: E. coli
T1 sequence (Q5HZG4 857-924 limits assumed): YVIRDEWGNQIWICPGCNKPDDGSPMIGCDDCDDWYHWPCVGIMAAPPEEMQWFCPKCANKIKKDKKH
The assay is described as follows: ITC, association of histone H3 peptides with TAF3PHD. The assay is classed as binding, human. Conditions: 25 °C, H3 1-10 peptide, Tris (50 mM), pH 7.5, from 3 to 5 experiments, ± SD. The source says: We investigated the thermodynamics of association of the H3KP4me3 peptide with five representative human reader domains containing either a PHD zinc finger or TTD, i.e. KDM5APHD3 (JARID1A-PHD3, residues M1489–V1641)[10], TAF3PHD (R857–K924)[22], BPTFPHD (L2583–N2751)[23], SGF29TTD (R115–K293)[24] and KDM4ATTD (JMJD2A, Q897-P1011)[25], selected on the basis of their preference for binding Ν^ε-trimethyllysine over other (non)methylation marks (Kme0 < Kme1 < Kme2 < Kme3), and their domain and aromatic cage diversity. The recombinant readers were produced in E. coli following reported procedures. Isothermal titration calorimetric (ITC) analyses were used to determine the dissociation constant (Kd), the Gibbs free energy of binding (ΔG°), the enthalpy of binding (ΔH°), and the entropy of binding (ΔS°). […] (Table 1, Fig. 2, Supplementary Fig. 1).
The following purified reader domains: TAF3PHD (R857-K924), KDM5APHD3 (JARID1A, M1489-V1641), BPTFPHD (L2583-N2751), KDM4ATTD (JMJD2A, Q897-P1011) and SGF29TTD (R115-K293) were prepared as reported[10],[22]–[26]. The histone lysine demethylase were produced and purified to high purity via reported procedures KDM3A (JMJD1A, T515-S1317)[41], KDM4AJmjC[39] (JMJD2A, M1-L359), KDM4EJmjC (JMJD2E, M1–Q337)[34] and KDM7B[40] (PHF8, M37-N483 [NP_001171]). KDM5DJmjC was produced using an N-terminal hexa-His tagged KDM4D (KDM4DM1-L358) DNA construct, transformed into BL21(DE3) competent cells for recombinant protein production. Colonies were used to inoculate of LB media (50 mL) containing kanamycin (50 µg·mL^−1) and chloramphenicol (34 µg·mL^−1), which was placed in a 37 °C shaker overnight. The starter culture (10 mL) was used to inoculate TB media (6 × 1 L) containing kanamycin (50 µg·mL^−1) in 2 L baffled shaker flasks. After reaching an of OD600 of ~0.8, the temperature was reduced to 18 °C; at OD600 ~0.9 the cells were induced by the IPTG (0.5 mM) addition. After shaking overnight, the culture was centrifuged (5000 rpm, 10 mins), the media was decanted, and the cell pellet was suspended in Lysis Buffer [HEPES (50 mM), NaCl (500 mM), imidazole (20 mM), glycerol (5%) and TCEP (0.5 mM) in water (pH 7.4)]. The suspension was lysed by passaging through a high-pressure cell breaker (Avestin – EmulsiFlex-C5) for three rounds. The lysate was cleared by centrifugation (60 minutes, 36,000 × g, 4 °C), then loaded onto a Ni NTA gravity column. […]
ITC studies followed a reported procedure. […] Histone peptide titrations were performed with the same reader batches. Solutions of the reader in buffer (25–40 µM) and of the histone H3 peptide (350–600 µM) in buffer were prepared. […] Heats of dilution for histone peptides determined in control experiments were subtracted from the titration binding data. […]
On the technique in general: In ITC the heat of successive injections is recorded.

The structures appear in SMILES notation.

With `C[C@H](N)C(=O)N[C@@H](CCCNC(=N)N)C(=O)N[C@H](C(=O)N[C@@H](CCCC[P+](C)(C)C)C(=O)N[C@@H](CCC(N)=O)C(=O)N[C@H](C(=O)N[C@@H](C)C(=O)N[C@@H](CCCNC(=N)N)C(=O)N[C@@H](CCCCN)C(=O)N[C@@H](CO)C(N)=O)[C@@H](C)O)[C@@H](C)O` [H3KP4me3], the “-TΔS°” value came to 1.1 ± 0.1 kcal/mol, the “ΔG°” value was -10.0 ± 0.1 kcal/mol and the “ΔH°” value was -11.1 ± 0.1 kcal/mol.
